These results are taken from the supplement of paper PMC10307832.

Common to all, as to assay: relative viability (nuclei count vs DMSO), 5 days (fraction); higher = more cells survive
Compound in assay [1]: CC(C)C[C@H](NC(=O)[C@H](CCc1ccccc1)NC(=O)CN1CCOCC1)C(=O)N[C@@H](Cc1ccccc1)C(=O)N[C@@H](CC(C)C)C(=O)[C@@]1(C)CO1 [Carfilzomib] + O=C(c1cc(Cc2n[nH]c(=O)c3ccccc23)ccc1F)N1CCN(C(=O)C2CC2)CC1 [Olaparib] (partner 8 µM)
The method in brief:
(§1)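 Values are medians from duplicate plates. Each reflects relative viability, defined as the nuclei count of treated wells over that of vehicle wells. Lung cancer cell lines in 1536-well plates were pin-tool dosed one day after seeding with one drug alone or with a fixed anchor-drug dose plus five library-drug doses (not always all listed) in √10 steps, then fixed, stained and imaged at 4× after 5 days.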

Compound in assay [2]: O=C(c1cc(Cc2n[nH]c(=O)c3ccccc23)ccc1F)N1CCN(C(=O)C2CC2)CC1 [Olaparib] + CC(C)C[C@H](NC(=O)[C@H](Cc1ccccc1)NC(=O)c1cnccn1)B(O)O [Bortezomib] (partner 0.002 µM)
The essentials: as §1

Compound in assay [3]: CC(C)C[C@H](NC(=O)[C@H](CCc1ccccc1)NC(=O)CN1CCOCC1)C(=O)N[C@@H](Cc1ccccc1)C(=O)N[C@@H](CC(C)C)C(=O)[C@@]1(C)CO1 [Carfilzomib] + C[C@@H](Oc1cc(-c2cnn(C3CCNCC3)c2)cnc1N)c1c(Cl)ccc(F)c1Cl [Crizotinib] (partner 1 µM)
The method in brief:
as §1

Compound in assay [4]: O=C(c1cc(Cc2n[nH]c(=O)c3ccccc23)ccc1F)N1CCN(C(=O)C2CC2)CC1 [Olaparib] + Cc1nc(Nc2ncc(C(=O)Nc3c(C)cccc3Cl)s2)cc(N2CCN(CCO)CC2)n1 [Dasatinib] (partner 0.075 µM)
The method in brief:
as §1

Turning to NCI-H2126, the relative viability in assay [1] (first compound 0.001 µM) was determined as 0.897; in assay [1] (first compound 0.003162 µM), 1.01; in assay [1] (first compound 0.01 µM), 0.957; in assay [1] (first compound 0.03162 µM), 0.746; in assay [1] (first compound 0.1 µM) it was 0.464; in assay [2] (first compound 0.08 µM) it was 1.22. In addition, the relative viability in assay [2] (first compound 0.253 µM) is 0.994; in assay [2] (first compound 2.53 µM) it was 1.07; in assay [2] (first compound 8 µM), 1.08; in assay [3] (first compound 0.001 µM) it was 0.98; in assay [3] (first compound 0.003162 µM) it was 1.07; in assay [3] (first compound 0.01 µM), 0.989. The relative viability turned out to be 1.01 in assay [3] (first compound 0.03162 µM); 0.707 in assay [3] (first compound 0.1 µM); 0.728 in assay [4] (first compound 0.08 µM); 0.634 in assay [4] (first compound 0.253 µM); 0.558 in assay [4] (first compound 2.53 µM); 0.606 in assay [4] (first compound 8 µM).

Consider HARA, for which the relative viability in assay [1] (first compound 0.001 µM) was 1.25; in assay [1] (first compound 0.003162 µM) it was 0.943; in assay [1] (first compound 0.01 µM), 1.2; in assay [1] (first compound 0.03162 µM), 0.0637; in assay [1] (first compound 0.1 µM) it was 0.0917; in assay [2] (first compound 0.08 µM) it was 1.25. The relative viability in assay [2] (first compound 0.253 µM) was 1.04; in assay [2] (first compound 2.53 µM), 1.06; in assay [2] (first compound 8 µM), 0.769; in assay [3] (first compound 0.001 µM) it was 1.05; in assay [3] (first compound 0.003162 µM), 1.06; in assay [3] (first compound 0.01 µM), 1.12. Also, the relative viability was found to be 0.0563 in assay [3] (first compound 0.03162 µM); 0.0555 in assay [3] (first compound 0.1 µM); 0.36 in assay [4] (first compound 0.08 µM); 0.286 in assay [4] (first compound 0.253 µM); 0.255 in assay [4] (first compound 2.53 µM); 0.237 in assay [4] (first compound 8 µM).

As to LC-2-ad, the relative viability in assay [1] (first compound 0.001 µM) came out at 0.673; in assay [1] (first compound 0.003162 µM) it was 0.715; in assay [1] (first compound 0.01 µM), 0.667; in assay [1] (first compound 0.03162 µM) it was 0.637; in assay [1] (first compound 0.1 µM), 0.237; in assay [2] (first compound 0.08 µM) it was 1.15. The relative viability in assay [2] (first compound 0.253 µM) worked out at 0.922; in assay [2] (first compound 2.53 µM), 0.908; in assay [2] (first compound 8 µM) it was 0.556; in assay [3] (first compound 0.001 µM) it was 0.508; in assay [3] (first compound 0.003162 µM), 0.485; in assay [3] (first compound 0.01 µM), 0.428. The relative viability came out at 0.371 in assay [3] (first compound 0.03162 µM); 0.279 in assay [3] (first compound 0.1 µM); 0.99 in assay [4] (first compound 0.08 µM); 0.454 in assay [4] (first compound 0.253 µM); 0.472 in assay [4] (first compound 2.53 µM); 0.491 in assay [4] (first compound 8 µM).

Turning to UMC-11, the relative viability in assay [1] (first compound 0.001 µM) is 0.342; in assay [1] (first compound 0.003162 µM) it was 0.326; in assay [1] (first compound 0.01 µM), 0.315; in assay [1] (first compound 0.03162 µM), 0.347; in assay [1] (first compound 0.1 µM), 0.205; in assay [2] (first compound 0.08 µM), 0.98. Also, the relative viability in assay [2] (first compound 0.253 µM) was found to be 0.648; in assay [2] (first compound 2.53 µM), 0.538; in assay [2] (first compound 8 µM) it was 0.325; in assay [3] (first compound 0.001 µM), 0.613; in assay [3] (first compound 0.003162 µM) it was 0.627; in assay [3] (first compound 0.01 µM) it was 0.627. Moreover, the relative viability in assay [3] (first compound 0.03162 µM) worked out at 0.554; in assay [3] (first compound 0.1 µM), 0.1; in assay [4] (first compound 0.08 µM), 0.464; in assay [4] (first compound 0.253 µM) it was 0.47; in assay [4] (first compound 2.53 µM), 0.452; in assay [4] (first compound 8 µM), 0.396.

On to EMC-BAC-2, for which the relative viability is 0.484 in assay [1] (first compound 0.001 µM); 0.454 in assay [1] (first compound 0.003162 µM); 0.561 in assay [1] (first compound 0.01 µM); 0.411 in assay [1] (first compound 0.03162 µM); 0.249 in assay [1] (first compound 0.1 µM); 1.09 in assay [2] (first compound 0.08 µM). Also, the relative viability is 1.04 in assay [2] (first compound 0.253 µM); 1.07 in assay [2] (first compound 2.53 µM); 0.967 in assay [2] (first compound 8 µM); 0.779 in assay [3] (first compound 0.001 µM); 0.896 in assay [3] (first compound 0.003162 µM); 0.928 in assay [3] (first compound 0.01 µM). The relative viability in assay [3] (first compound 0.03162 µM) came out at 0.661; in assay [3] (first compound 0.1 µM) it was 0.229; in assay [4] (first compound 0.08 µM), 0.365; in assay [4] (first compound 0.253 µM), 0.382; in assay [4] (first compound 2.53 µM) it was 0.471; in assay [4] (first compound 8 µM), 0.338.

For COR-L 105, the relative viability in assay [1] (first compound 0.001 µM) came to 0.704; in assay [1] (first compound 0.003162 µM), 0.735; in assay [1] (first compound 0.01 µM) it was 0.716; in assay [1] (first compound 0.03162 µM), 0.465; in assay [1] (first compound 0.1 µM), 0.301; in assay [2] (first compound 0.08 µM) it was 0.936. Besides, the relative viability was 0.85 in assay [2] (first compound 0.253 µM); 0.464 in assay [2] (first compound 2.53 µM); 0.426 in assay [2] (first compound 8 µM); 0.84 in assay [3] (first compound 0.001 µM); 0.743 in assay [3] (first compound 0.003162 µM); 0.608 in assay [3] (first compound 0.01 µM). Moreover, the relative viability in assay [3] (first compound 0.03162 µM) came to 0.262; in assay [3] (first compound 0.1 µM), 0.17; in assay [4] (first compound 0.08 µM) it was 0.34; in assay [4] (first compound 0.253 µM), 0.403; in assay [4] (first compound 2.53 µM) it was 0.356; in assay [4] (first compound 8 µM), 0.288.

NCI-H596: the relative viability in assay [1] (first compound 0.001 µM) worked out at 0.691; in assay [1] (first compound 0.003162 µM), 0.704; in assay [1] (first compound 0.01 µM), 0.727; in assay [1] (first compound 0.03162 µM) it was 0.552; in assay [1] (first compound 0.1 µM), 0.186; in assay [2] (first compound 0.08 µM), 1.3. The relative viability in assay [2] (first compound 0.253 µM) stood at 0.878; in assay [2] (first compound 2.53 µM), 0.865; in assay [2] (first compound 8 µM), 0.794; in assay [3] (first compound 0.001 µM), 0.916; in assay [3] (first compound 0.003162 µM), 1.28; in assay [3] (first compound 0.01 µM) it was 1. In addition, the relative viability in assay [3] (first compound 0.03162 µM) was 0.77; in assay [3] (first compound 0.1 µM) it was 0.334; in assay [4] (first compound 0.08 µM), 0.597; in assay [4] (first compound 0.253 µM), 0.68; in assay [4] (first compound 2.53 µM), 0.583; in assay [4] (first compound 8 µM), 0.454.
